Earlier results on 1 molecule are cited in publication PMC10485003, “Antibiotic hyper-resistance in a class I aminoacyl-tRNA synthetase with altered active site signature motif” (Nature Communications, 2023).

Structures are written as SMILES.

The series deals with IleRS. On the set-up: method as in PMID 18234501. The conditions noted are these: monic acid A alone, without the nonanoic acid part; cited from earlier work.

For the molecule `CC(=CC(=O)O)CC1OCC(CC2OC2C(C)C(C)O)C(O)C1O` (stereo not shown) [monic acid A], the inhibitor activity result was “cannot act as an inhibitor”.
